Experimental data published in the supplement of paper PMC11208160.
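Further: IS621 bridge recombinase in Escherichia coli cells against a fixed T5 target plasmid.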

Test: recombinant UMI read abundance after kanamycin selection (control-corrected) (log10(CPM+1)); higher = more efficient recombination; extreme values may be limits of the assay; sequences stand for … in AGTGCAGAGAAAATCGGCCAGTTTTCTCTGCCTGCAGTCCGCATGCCGTGGGACCCCTTGGGTTCTAACCTGTTGCCTAGATTTATGCAGCGGACTGCCTTTCTCCCAAAGTGATAAACCGG…AGGTTGGTTTCACT; site = the 11-nt donor
Summary of the method: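 In a pooled Escherichia coli screen for the IS621 bridge recombinase, donor and donor-binding-loop pairs were each placed with a 12-nt UMI on a plasmid bearing a promoterless kanamycin gene. This library was co-electroporated with a target plasmid encoding a fixed target and T7-inducible recombinase, and cells were plated either on IPTG (0.07 mM) plus kanamycin or without selection, in two replicates each. Recombinant UMIs were PCR-amplified across the donor–target junction and sequenced, and counts were converted to CPM, averaged over replicates, scaled by control-derived factors and reported as log10(CPM+1).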
In the case of “CCCGATCCATGGACCGGTTTTCCCGGTAATCCGTATTTGCA (site CCCGCTCCTTG)”, the “recombinant UMI read abundance (log10)” value was 0.
In the case of “CCCGATCCATGGACCGGTTTTCCCGGTAATCCGTATTTGCA (site CCCGGTCCTTG)”, the “recombinant UMI read abundance (log10)” value was 0.
With “CCCGATCCATGGACCGGTTTTCCCGGTAATCCGTATTTGCA (site CCCGTTCCTTG)” the “recombinant UMI read abundance (log10)” value was 0.
With “CCCGCTCCATGGACCGGTTTTCCCGGTAATCCGTATTTGCA (site CCCGATCCTTG)” the “recombinant UMI read abundance (log10)” value was 0.
In the case of “CCCGCTCCATGGACCGGTTTTCCCGGTAATCCGTATTTGCA (site CCCGCTCCTTG)”, the “recombinant UMI read abundance (log10)” value was 0.
In the case of “CCCGCTCCATGGACCGGTTTTCCCGGTAATCCGTATTTGCA (site CCCGGTCCTTG)”, the “recombinant UMI read abundance (log10)” value was 0.
In the case of “CCCGCTCCATGGACCGGTTTTCCCGGTAATCCGTATTTGCA (site CCCGTTCCTTG)”, the “recombinant UMI read abundance (log10)” value was 0.
With “CCCGGACCATGGACCGGTTTTCCCGGTAATCCGTATTTGCA (site CCCGGACCTTG)” the “recombinant UMI read abundance (log10)” value was 0.
For “CCCGGACCATGGACCGGTTTTCCCGGTAATCCGTATTTGCA (site CCCGGCCCTTG)”, the “recombinant UMI read abundance (log10)” value was 0.
With “CCCGGACCATGGACCGGTTTTCCCGGTAATCCGTATTTGCA (site CCCGGGCCTTG)” the “recombinant UMI read abundance (log10)” value was 0.
For “CCCGGACCATGGACCGGTTTTCCCGGTAATCCGTATTTGCA (site CCCGGTCCTTG)”, the “recombinant UMI read abundance (log10)” value was 0.0045.
For “CCCGGTCCATGGACCGGTTTTCCCGGTAATCCGTATTTGCG (site CCCGGTCCTAG)”, the “recombinant UMI read abundance (log10)” value was 0.
For “CCCGGTCCATGGACCGGTTTTCCCGGTAATCCGTATTTGCG (site CCCGGTCCTCG)”, the “recombinant UMI read abundance (log10)” value was 0.
For “CCCGGTCCATGGACCGGTTTTCCCGGTAATCCGTATTTGCG (site CCCGGTCCTGG)”, the “recombinant UMI read abundance (log10)” value was 0.
For “CCCGGTCCATGGACCGGTTTTCCCGGTAATCCGTATTTGCG (site CCCGGTCCTTG)”, the “recombinant UMI read abundance (log10)” value was 0.
In the case of “CCCGGTCCATGGACCGGTTTTCCCGGTAATCCGTATTTGGA (site CCCGGTCCTTA)”, the “recombinant UMI read abundance (log10)” value was 0.00376.
For “CCCGGTCCATGGACCGGTTTTCCCGGTAATCCGTATTTGGA (site CCCGGTCCTTC)”, the “recombinant UMI read abundance (log10)” value was 0.0256.
With “CCCGGTCCATGGACCGGTTTTCCCGGTAATCCGTATTTGGA (site CCCGGTCCTTG)” the “recombinant UMI read abundance (log10)” value was 0.
With “CCCGGTCCATGGACCGGTTTTCCCGGTAATCCGTATTTGGA (site CCCGGTCCTTT)” the “recombinant UMI read abundance (log10)” value was 0.0436.
In the case of “CCCGGTTCATGGACCGGTTTTCCCGGTAATCCGTATTTGCT (site CCCGGTTCTAG)”, the “recombinant UMI read abundance (log10)” value was 0.
In the case of “CCCTATCCATGGACCGGTTTTCCCGGTAATCCGTATTTGCC (site CCCTAACCTGG)”, the “recombinant UMI read abundance (log10)” value was 0.
In the case of “CCCTATCCATGGACCGGTTTTCCCGGTAATCCGTATTTGCC (site CCCTACCCTGG)”, the “recombinant UMI read abundance (log10)” value was 0.
In the case of “CCCTATCCATGGACCGGTTTTCCCGGTAATCCGTATTTGCC (site CCCTAGCCTGG)”, the “recombinant UMI read abundance (log10)” value was 0.
For “CCCTATCCATGGACCGGTTTTCCCGGTAATCCGTATTTGCC (site CCCTATCCTGG)”, the “recombinant UMI read abundance (log10)” value was 0.417.
In the case of “CCCTGCTCATGGACCGGTTTTCCCGGTAATCCGTATTTGGG (site CCCTACTCTCC)”, the “recombinant UMI read abundance (log10)” value was 0.174.
In the case of “CCCTGCTCATGGACCGGTTTTCCCGGTAATCCGTATTTGGG (site CCCTCCTCTCC)”, the “recombinant UMI read abundance (log10)” value was 0.027.
For “CCCTGCTCATGGACCGGTTTTCCCGGTAATCCGTATTTGGG (site CCCTGCTCTCC)”, the “recombinant UMI read abundance (log10)” value was 0.409.
For “CCCTGCTCATGGACCGGTTTTCCCGGTAATCCGTATTTGGG (site CCCTTCTCTCC)”, the “recombinant UMI read abundance (log10)” value was 0.018.
In the case of “CCCTGGCCATGGACCGGTTTTCCCGGTAATCCGTATTTGCC (site CCCTAGCCTGG)”, the “recombinant UMI read abundance (log10)” value was 0.
With “CCCTGGCCATGGACCGGTTTTCCCGGTAATCCGTATTTGCC (site CCCTCGCCTGG)” the “recombinant UMI read abundance (log10)” value was 0.
In the case of “CCCTGGCCATGGACCGGTTTTCCCGGTAATCCGTATTTGCC (site CCCTGGCCTGG)”, the “recombinant UMI read abundance (log10)” value was 0.
With “CCCTGGCCATGGACCGGTTTTCCCGGTAATCCGTATTTGCC (site CCCTTGCCTGG)” the “recombinant UMI read abundance (log10)” value was 0.
For “CCCTTCACATGGACCGGTTTTCCCGGTAATCCGTATTTGGG (site CCCTTCACTCC)”, the “recombinant UMI read abundance (log10)” value was 0.004.
With “CCCTTCACATGGACCGGTTTTCCCGGTAATCCGTATTTGGG (site CCCTTCCCTCC)” the “recombinant UMI read abundance (log10)” value was 0.0128.
For “CCCTTCACATGGACCGGTTTTCCCGGTAATCCGTATTTGGG (site CCCTTCGCTCC)”, the “recombinant UMI read abundance (log10)” value was 0.0224.
With “CCCTTCACATGGACCGGTTTTCCCGGTAATCCGTATTTGGG (site CCCTTCTCTCC)” the “recombinant UMI read abundance (log10)” value was 0.0124.
With “CCCTTCCCATGGACCGGTTTTCCCGGTAATCCGTATTTGGG (site CCCTTCACTCC)” the “recombinant UMI read abundance (log10)” value was 0.0226.
With “CCCTTCCCATGGACCGGTTTTCCCGGTAATCCGTATTTGGG (site CCCTTCCCTCC)” the “recombinant UMI read abundance (log10)” value was 0.00862.
In the case of “CCCTTCCCATGGACCGGTTTTCCCGGTAATCCGTATTTGGG (site CCCTTCGCTCC)”, the “recombinant UMI read abundance (log10)” value was 0.00355.
In the case of “CCCTTCCCATGGACCGGTTTTCCCGGTAATCCGTATTTGGG (site CCCTTCTCTCC)”, the “recombinant UMI read abundance (log10)” value was 0.0121.
In the case of “CCCTTCTCATGGACCGGTTTTCCCGGTAATCCGTATTTGGC (site CCCTTCTCTAC)”, the “recombinant UMI read abundance (log10)” value was 0.0232.
For “CCCTTCTCATGGACCGGTTTTCCCGGTAATCCGTATTTGGC (site CCCTTCTCTCC)”, the “recombinant UMI read abundance (log10)” value was 0.455.
With “CCCTTCTCATGGACCGGTTTTCCCGGTAATCCGTATTTGGC (site CCCTTCTCTGC)” the “recombinant UMI read abundance (log10)” value was 1.71.
In the case of “CCCTTCTCATGGACCGGTTTTCCCGGTAATCCGTATTTGGC (site CCCTTCTCTTC)”, the “recombinant UMI read abundance (log10)” value was 0.00807.
In the case of “CCGAAGCCATGGACCGGTTTTCCCGGTAATCCGTATTTGTG (site CCGAAGCCTCA)”, the “recombinant UMI read abundance (log10)” value was 0.0182.
With “CCGAATCCATGGACCGGTTTTCCCGGTAATCCGTATTTGCT (site CCGAATCCTAG)” the “recombinant UMI read abundance (log10)” value was 0.196.
With “CCGAATCCATGGACCGGTTTTCCCGGTAATCCGTATTTGCT (site CGGAATCCTAA)” the “recombinant UMI read abundance (log10)” value was 0.
For “CCGAATTCATGGACCGGTTTTCCCGGTAATCCGTATTTGGG (site CCGAATTCTCC)”, the “recombinant UMI read abundance (log10)” value was 0.
For “CCGCACACATGGACCGGTTTTCCCGGTAATCCGTATTTGAA (site CCGCACACTTT)”, the “recombinant UMI read abundance (log10)” value was 0.931.
In the case of “CCGCATCCATGGACCGGTTTTCCCGGTAATCCGTATTTGGG (site CCGCATCCTCC)”, the “recombinant UMI read abundance (log10)” value was 0.0031.
In the case of “CCGCCAACATGGACCGGTTTTCCCGGTAATCCGTATTTGAG (site CCGCCAACTCT)”, the “recombinant UMI read abundance (log10)” value was 0.356.
With “CCGCGGGCATGGACCGGTTTTCCCGGTAATCCGTATTTGCC (site CCGCGGGCTGG)” the “recombinant UMI read abundance (log10)” value was 1.43.
With “CCGCGTGCATGGACCGGTTTTCCCGGTAATCCGTATTTGCG (site CCGCGTGCTCG)” the “recombinant UMI read abundance (log10)” value was 0.222.
For “CCGCTCTCATGGACCGGTTTTCCCGGTAATCCGTATTTGTT (site CCGCTCTCTAA)”, the “recombinant UMI read abundance (log10)” value was 1.51.
For “CCGCTGCCATGGACCGGTTTTCCCGGTAATCCGTATTTGAA (site CCGCTGCCTTT)”, the “recombinant UMI read abundance (log10)” value was 0.0286.
In the case of “CCGCTTACATGGACCGGTTTTCCCGGTAATCCGTATTTGGA (site CCGCTTACTTC)”, the “recombinant UMI read abundance (log10)” value was 0.539.
For “CCGGACCCATGGACCGGTTTTCCCGGTAATCCGTATTTGTT (site CCGGACCCTAA)”, the “recombinant UMI read abundance (log10)” value was 0.0191.
For “CCGGCACCATGGACCGGTTTTCCCGGTAATCCGTATTTGAT (site CCGGCACCTAT)”, the “recombinant UMI read abundance (log10)” value was 0.00703.
In the case of “CCGGCATCATGGACCGGTTTTCCCGGTAATCCGTATTTGCG (site CCGGCATCTCG)”, the “recombinant UMI read abundance (log10)” value was 0.
With “CCGGCCGCATGGACCGGTTTTCCCGGTAATCCGTATTTGCC (site CCGGCCGCTGG)” the “recombinant UMI read abundance (log10)” value was 0.
In the case of “CCGGGGCCATGGACCGGTTTTCCCGGTAATCCGTATTTGGT (site CCGGGGCCTAC)”, the “recombinant UMI read abundance (log10)” value was 0.0146.
For “CCGGGTCCATGGACCGGTTTTCCCGGTAATCCGTATTTGCA (site CCAGGTCCTTG)”, the “recombinant UMI read abundance (log10)” value was 0.
In the case of “CCGGGTCCATGGACCGGTTTTCCCGGTAATCCGTATTTGCA (site CCCGGTCCTTG)”, the “recombinant UMI read abundance (log10)” value was 0.
For “CCGGGTCCATGGACCGGTTTTCCCGGTAATCCGTATTTGCA (site CCGGGTCCTTG)”, the “recombinant UMI read abundance (log10)” value was 0.00309.
With “CCGGGTCCATGGACCGGTTTTCCCGGTAATCCGTATTTGCA (site CCTGGTCCTTG)” the “recombinant UMI read abundance (log10)” value was 0.0157.
In the case of “CCGGTAACATGGACCGGTTTTCCCGGTAATCCGTATTTGCG (site CCGGTAACTCG)”, the “recombinant UMI read abundance (log10)” value was 0.686.
With “CCGTAACCATGGACCGGTTTTCCCGGTAATCCGTATTTGGT (site CCGTAACCTAC)” the “recombinant UMI read abundance (log10)” value was 0.
For “CCGTAGCCATGGACCGGTTTTCCCGGTAATCCGTATTTGCC (site CCATAGCCTGG)”, the “recombinant UMI read abundance (log10)” value was 0.
With “CCGTAGCCATGGACCGGTTTTCCCGGTAATCCGTATTTGCC (site CCCTAGCCTGG)” the “recombinant UMI read abundance (log10)” value was 0.
In the case of “CCGTAGCCATGGACCGGTTTTCCCGGTAATCCGTATTTGCC (site CCGTAGCCTGG)”, the “recombinant UMI read abundance (log10)” value was 0.
With “CCGTAGCCATGGACCGGTTTTCCCGGTAATCCGTATTTGCC (site CCTTAGCCTGG)” the “recombinant UMI read abundance (log10)” value was 0.
For “CCGTATACATGGACCGGTTTTCCCGGTAATCCGTATTTGCT (site CCGTATACTAG)”, the “recombinant UMI read abundance (log10)” value was 1.24.
In the case of “CCGTATACATGGACCGGTTTTCCCGGTAATCCGTATTTGCT (site CCGTCTACTAG)”, the “recombinant UMI read abundance (log10)” value was 0.
For “CCGTATACATGGACCGGTTTTCCCGGTAATCCGTATTTGCT (site CCGTGTACTAG)”, the “recombinant UMI read abundance (log10)” value was 0.
With “CCGTATACATGGACCGGTTTTCCCGGTAATCCGTATTTGCT (site CCGTTTACTAG)” the “recombinant UMI read abundance (log10)” value was 0.
